Results from PMC4628094, “In Vitro Assessment of Uptake and Lysosomal Sequestration of Respiratory Drugs in Alveolar Macrophage Cell Line NR8383” (Pharmaceutical Research, 2015).
Like-named read-outs stand apart in the source and are kept apart here. One block for each compound: values may come before it.

What was measured:
NR8383 cells [1] = test: Drug uptake in NR8383 at 37 and 4°C (CLuptake, CLdiff, Kp)
Description: The studies were carried out in a 24-well plate format and the in vitro conditions were optimised in terms of cell detachment method from culture flasks, coating type of 24-well plates, seeding density, culturing time and drug incubation time points. Briefly, for cell detachment, gentle scraping versus Mg^2+-Ca^2+ free DPBS treatment of cells in culture flasks were tested. Considering the semi-adherent nature of AMs, cell seeding into non-coated, collagen-I and poly-D-lysine coated 24-well plates was investigated for cell attachment, distribution in the wells and detachment following DPBS washes during the uptake experiments. In addition, seeding densities of 0.36 and 0.72 × 10^6 cells per well were assessed with respect to cell attachment, confluency following culture (plating efficiency) and potential cell detachment following DPBS washes. Culturing time ranging from 4 to 24 h was investigated for optimal cell attachment before carrying out uptake experiments. Uptake rate and Kp data were normalised by cell number determined indirectly by measuring the amount of protein in samples by bicinchoninic acid (BCA) protein assay (Thermo Scientific, Loughborough, UK). Following the optimisation, detachment of NR8383 from cell culture flasks was performed by gentle scraping prior to cell counting and seeding into collagen-I coated 24-well plates at 0.5 × 10^6 cells per well. Cells were cultured for 16 h at 37°C, 5% CO2 (CO2 incubator, MCO-17AIC, Sanyo Biomedical, Loughborough, UK) before uptake studies performed over 1 to 10 min period.
The drug uptake in NR8383 corresponding to these conditions was described by total uptake (CLuptake) and passive diffusion (CLdiff) clearance terms, respectively. […] Substrate solutions were prepared by dilution of the stock solutions in DPBS resulting in final DMSO content < 1%. Uptake studies were performed in the presence of 1 mM ABT, a nonspecific P450 inhibitor, in order to avoid any potential impact of phase I metabolism. […] Following microscopy, the CGM was removed, cells were washed twice with 800 μL of either pre-warmed or ice-cold DPBS (for experiments at 37 and 4°C, respectively) and pre-incubation with 500 μL of pre-warmed or ice-cold ABT/DPBS was carried out for 20 min. Where ABT pre-treatment was not necessary, cell monolayers were treated with 500 μL of DPBS only. Once pre-incubation buffer was removed from the cell monolayers, incubations were started by addition of 400 μL of substrate solution (pre-warmed or ice-cold) in each well. Each substrate was incubated with the cells for 1, 2, 5 and 10 min and each time point at 37°C and 4°C. For 37°C experiments, incubation was carried out on a dry heater block maintained at 37°C throughout the experiment (Tecam Dri-block DB-3, Tecam, Princeton, NJ) and for 4°C experiments, the procedure was carried out on ice. Incubation with substrate was stopped by removal of the media with drug solution and washing the monolayers three times with 800 μL ice-cold DPBS. The back-diffusion of the drug from the cell into the medium was considered to be negligible under these conditions. The removed incubation media were retained for the measurement of drug medium concentrations and subsequent determination of Kp for each drug. The cells were lysed by addition of 200 μL ice-cold deionised water; cell lysates were kept at −20°C overnight and then processed further for LC-MS/MS analysis. Experiments were performed on three or more separate occasions for each drug investigated. […] The amount of protein per well was measured using a BSA calibration curve and absorbances read at 562 nm (S22 Boeco UV-Visible Spectrophotometer, Hamburg, Germany).

NR8383 cells [2] = tested on: NR8383 cells
Description: Lactate dehydrogenase (LDH) assay kit (Sigma-Aldrich, Dorset, UK) was used to measure the cytotoxicity of the chemical agents used to assess the extent of lysosomal sequestration relative to untreated cells. In addition, the cytotoxicity was assessed at high drug concentrations (50 and 100 μM) in cases where uptake was investigated over a substrate concentration range. The viability of the untreated cells and the effect of the individual drugs and chemical agents, as well as the effect of their combined use were assessed. […] For the assessment of the individual chemical agents, same concentrations were used as in the lysosomal sequestration studies. The cytotoxicity in above samples was measured on three separate occasions. The LDH activity of the experimental samples was compared against the 100% activity of the LDH positive control included in the assay kit. […] Data acquisition was performed using Magellan software (version 7.1, Tecan Group Ltd., Austria).

NR8383 cells [3] = details: NR8383, 5 μM drug, 5 min
[4] = Physicochemical properties, experimental literature values (Table I); details: classification in Table I
[5] = experimental value; ref ([21])-([30]) per drug, Table I; cited from earlier work
[6] = Uptake kinetics of clarithromycin in NR8383, two-step method; type: in vitro ADME, rat; details: rat, incubation media of NR8383 cells; NR8383 incubation media; read-out: fraction unbound in the media (fumed)
NR8383 cells [7] = test: as above; type: in vitro ADME, rat; details: in the presence of NH4Cl
[8] = tested on: NR8383 cell line and granule fraction (containing lysosomes); details: ref ([12]), cited from earlier work
NR8383 cells [9] = test: LysoTracker Red (LTR) confocal assessment of lysosomal sequestration in NR8383; type: cell-based, rat; details: drug 5 μM co-incubated with 200 nM LTR, 1 h
NR8383 cells [10] = test: Accumulation (Kp) in NR8383 over a concentration range, two-site binding model; details: apparent saturable uptake equilibrium constant, two-site binding model, control
Description: The drug uptake in NR8383 corresponding to these conditions was described by total uptake (CLuptake) and passive diffusion (CLdiff) clearance terms, respectively. […] Substrate solutions were prepared by dilution of the stock solutions in DPBS resulting in final DMSO content < 1%. Uptake studies were performed in the presence of 1 mM ABT, a nonspecific P450 inhibitor, in order to avoid any potential impact of phase I metabolism. […] Following microscopy, the CGM was removed, cells were washed twice with 800 μL of either pre-warmed or ice-cold DPBS (for experiments at 37 and 4°C, respectively) and pre-incubation with 500 μL of pre-warmed or ice-cold ABT/DPBS was carried out for 20 min. Where ABT pre-treatment was not necessary, cell monolayers were treated with 500 μL of DPBS only. […] The amount of protein per well was measured using a BSA calibration curve and absorbances read at 562 nm (S22 Boeco UV-Visible Spectrophotometer, Hamburg, Germany).
Kp was determined by Eq. 1 as reported previously ([36],[37]);1 Kp=Ccell/Cmedium where Ccell and Cmedium represent concentration of the drug in the cell and medium, respectively. […] Cell volume was calculated by multiplying the reported NR8383 volume of 4.2 μL/mg protein ([38]) with the amount of protein measured experimentally (0.25 ± 0.06 mg/10^6 cells). […]

NR8383 cells [11] = test: Lysosomal sequestration studies in NR8383 with NH4Cl, monensin and nigericin; details: for Reduction in uptake clearance (%): preliminary optimisation; for % Reduction in Kp by NH4Cl: NH4Cl 20 mM
[12] = tested on: Liver tissue slices from male Sprague-Dawley rats; set-up: method as in ref (3) (a number printed in a supplementary file, which may have a reference list of its own: not looked up in the article's list); details: desipramine 5 µM, chloroquine 10 µM, 60 min, ref (3), cited from earlier work
[13] = tested on: Hepatocytes isolated from male Wistar rats; details: NH4Cl 10 mM, 15 min, ref (2), cited from earlier work
[14] = tested on: Lung granule fraction containing lysosomes from male Wistar rats; set-up: method as in ref (6) (a number printed in a supplementary file, which may have a reference list of its own: not looked up in the article's list); details: NH4Cl 10 mM, drug 1 µM, 10 min; ref (6); cited from earlier work
[15] = tested on: Lung tissue slices from male Sprague-Dawley rats; details: desipramine, diazepam 5 µM, chloroquine, thiopental 10 µM, 60 min, ref (3), cited from earlier work
[16] = tested on: Liver tissue slices from male Wistar rats; set-up: method as in ref (5) (a number printed in a supplementary file, which may have a reference list of its own: not looked up in the article's list); details: NH4Cl 20 mM, drug 5 µM, 60 min, ref (5); cited from earlier work
[17] = tested on: Lung tissue slices from male Wistar rats; set-up: method as in ref (5) (a number printed in a supplementary file, which may have a reference list of its own: not looked up in the article's list); details: NH4Cl 20 mM, drug 5 µM, 60 min, ref (5); cited from earlier work
[18] = tested on: Brain slices from male Wistar rats; set-up: method as in ref (10) (a number printed in a supplementary file, which may have a reference list of its own: not looked up in the article's list); details: drug 5 µM, 60 min, ref (10), cited from earlier work; for Reduction in total uptake (%): NH4Cl 20 mM; for Reduction of total uptake (%): monensin 10 µM
[19] = tested on: Liver tissue slices from male Wistar rats; set-up: method as in ref (14) (a number printed in a supplementary file, which may have a reference list of its own: not looked up in the article's list); details: monensin 10 µM, drug 5 µM, 60 min, ref (14); cited from earlier work
[20] = tested on: Lung tissue slices from male Wistar rats; set-up: method as in ref (14) (a number printed in a supplementary file, which may have a reference list of its own: not looked up in the article's list); details: monensin 10 µM, drug 5 µM, 60 min, ref (14); cited from earlier work
[21] = tested on: Lung tissue slices from male Wistar rats; set-up: method as in ref (9) (a number printed in a supplementary file, which may have a reference list of its own: not looked up in the article's list); details: NH4Cl 20 mM, drug 5 µM, 60 min, ref (9); cited from earlier work
[22] = tested on: Lung tissue slices from male Wistar rats; set-up: method as in ref (8) (a number printed in a supplementary file, which may have a reference list of its own: not looked up in the article's list); details: NH4Cl 20 mM, drug 5 µM, 60 min, ref (8); cited from earlier work
[23] = tested on: Liver tissue slices from male Wistar rats; set-up: method as in ref (8) (a number printed in a supplementary file, which may have a reference list of its own: not looked up in the article's list); details: NH4Cl 20 mM, drug 5 µM, 60 min, ref (8); cited from earlier work
[24] = tested on: Liver tissue slices from male Wistar rats; set-up: method as in ref (9) (a number printed in a supplementary file, which may have a reference list of its own: not looked up in the article's list); details: NH4Cl 20 mM, drug 5 µM, 60 min, ref (9); cited from earlier work
[25] = tested on: Liver tissue slices from male Wistar rats; set-up: method as in ref (7) (a number printed in a supplementary file, which may have a reference list of its own: not looked up in the article's list); details: NH4Cl 3 mg/min/kg (i.v. infusion), drug 3.2 mg/kg (i.v. injection), 360 min, ref (7); cited from earlier work
[26] = tested on: Lung tissue slices from male Wistar rats; set-up: method as in ref (7) (a number printed in a supplementary file, which may have a reference list of its own: not looked up in the article's list); details: NH4Cl 3 mg/min/kg (i.v. infusion), drug 3.2 mg/kg (i.v. injection), 360 min, ref (7); cited from earlier work

- Contribution of passive (%) (NR8383 cells [1]; NR8383, 5 μM, CLdiff relative to CLuptake): 0.53%
- mean uptake of 5 μM clarithromycin across experiments (NR8383 cells [1]; control of individual experiments, n = 59): 5.50 ± 2.96 μl/min/10^6 cells
- Acid–base Property [4]: Base
- fraction unbound [6]: 0.93 ± 0.03
- total CLuptake from kinetic parameters (NR8383 cells [7]): 0.46 μL/min/10^6 cells
- KU1 (NR8383 cells [10]): 1.18 ± 1.45 µM
Structure (SMILES): CC[C@H]1OC(=O)[C@H](C)[C@@H](O[C@H]2C[C@@](C)(OC)[C@@H](O)[C@H](C)O2)[C@H](C)[C@@H](O[C@@H]2O[C@H](C)C[C@H](N(C)C)[C@H]2O)[C@](C)(OC)C[C@@H](C)C(=O)[C@H](C)[C@@H](O)[C@]1(C)O [Clarithromycin]
- cytotoxicity (LDH) compared to positive control (NR8383 cells [2]; drug 50 μM): < 3%
- cytotoxicity (LDH) compared to positive control (NR8383 cells [2]; drug 100 μM): 10%
- % Reduction in Kp by Monensin (NR8383 cells [3]; monensin 5 μM): 77%
- % Reduction in Kp by Nigericin (NR8383 cells [3]; nigericin 10 μM): 82%
- LogD7.4 [5]: 1.57
- Km (NR8383 cells [7]; active uptake): 28.5 µM
- Vmax (NR8383 cells [7]; active uptake): 12.4 pmol/min/10^6 cells
- Kp ([8]; NR8383, 10 min, 37°C, initial concentration 50 μM): ~ 16
- reduction in Kp at 4°C compared to 37°C ([8]; NR8383): 90%
- reduction of amount of drug in the cells by NH4Cl ([8]; NR8383): approximately half
- reduction of fraction of drug in the granules compartment (containing the lysosomes) by NH4Cl ([8]; NR8383): 75%
- reduction in LTR accumulation (NR8383 cells [9]): 86%
- Reduction in uptake clearance (%) (NR8383 cells [11]; 5 µM drug, + 10 mM NH4Cl): 85%
- Reduction in uptake clearance (%) (NR8383 cells [11]; 5 µM drug, + 20 mM NH4Cl): 93%
- Reduction in uptake clearance (%) (NR8383 cells [11]; 5 µM drug, + 50 mM NH4Cl): 94%
- Reduction in uptake clearance (%) (NR8383 cells [11]; 20 µM drug, + 10 mM NH4Cl): 85%
- Reduction in uptake clearance (%) (NR8383 cells [11]; 20 µM drug, + 20 mM NH4Cl): 89%
- Reduction in uptake clearance (%) (NR8383 cells [11]; 20 µM drug, + 50 mM NH4Cl): 93%
- % Reduction in Kp by NH4Cl (NR8383 cells [11]; NR8383, 5 μM drug): 84 ± 6.6 %
- % Reduction in Kp by Monensin (NR8383 cells [11]; NR8383, 5 μM drug, monensin 5 μM, 5 min): 77 ± 8.5 %
- % Reduction in Kp by Nigericin (NR8383 cells [11]; NR8383, 5 μM drug, nigericin 10 μM, 5 min): 82 ± 9.6 %
- % Reduction in Kp by NH4Cl (NR8383 cells [11]; NR8383, 20 µM drug): 75 ± 8.3 %
- % Reduction in CLuptake by Monensin (5 µM) (NR8383 cells [11]; NR8383, at 5 µM drug): 78 ± 8.0 %
- % Reduction in CLuptake by NH4Cl (20 mM) (NR8383 cells [11]; NR8383, at 5 µM drug): 85 ± 7.5 %
- % Reduction in CLuptake by Nigericin (10 µM) (NR8383 cells [11]; NR8383, at 5 µM drug): 84 ± 9.2 %
- % Reduction in CLuptake by NH4Cl (20 mM) (NR8383 cells [11]; NR8383, at 20 µM drug): 78 ± 9.0 %
- reduction of Kp and CLuptake in the presence of NH4Cl and monensin/nigericin (NR8383 cells [11]; NR8383, summary in Abstract): 59–85%
- reduction in Kp in the presence of chemical agents (summary in Discussion) (NR8383 cells [11]; NR8383, NH4Cl, monensin, nigericin): ≥ 65%

Structure (SMILES): CCN(CC)CCCC(C)Nc1ccnc2cc(Cl)ccc12 (stereo not drawn) [Chloroquine]
- Reduction in total uptake (%) ([12]; NH4Cl 20 mM): 53%
- Reduction of total uptake (%) ([12]; monensin 10 µM): 44%
- Reduction in total uptake (%) ([13]; drug 10 µM): 93%
- Reduction in total uptake (%) ([13]; drug 100 µM): 77%
- Reduction in total uptake (%) [14]: 87%
- Reduction in total uptake (%) ([15]; NH4Cl 20 mM): 66%
- Reduction of total uptake (%) ([15]; monensin 10 µM): 73%

Structure (SMILES): CN(C)CCCN1c2ccccc2Sc2ccccc21 [Promazine]
- Reduction in total uptake (%) [16]: 59%
- Reduction in total uptake (%) [17]: 46.8%
- Reduction in total uptake (%) [18]: 20%
- Reduction of total uptake (%) [18]: 35%
- Reduction of total uptake (%) [19]: 86%
- Reduction of total uptake (%) [20]: 71%

Structure (SMILES): CN(C)CCC=C1c2ccccc2CCc2ccccc21 [Amitriptyline]
- Reduction in total uptake (%) [16]: 40%
- Reduction in total uptake (%) [17]: 63%
- Reduction in total uptake (%) [18]: 32%
- Reduction of total uptake (%) [18]: 31%
- Reduction in total uptake (%) [21]: 47%
- Reduction in total uptake (%) [22]: 56%
- Reduction in total uptake (%) [23]: 68%
- Reduction in total uptake (%) [24]: 67%
- Reduction of total uptake (%) [19]: 48%
- Reduction of total uptake (%) [20]: 70%

Structure (SMILES): OC(CCN1CCCCC1)(c1ccccc1)C1CCCCC1 (stereo not drawn) [Trihexyphenidyl]
- Reduction in total uptake (%) [25]: 11%
- Reduction in total uptake (%) [26]: 68%
- Reduction in total uptake (%) [14]: 54%
